Tests used:
26S proteasome [1] = conditions: prior work; cited from earlier work
CSN = target: T1, CSN (Schizosaccharomyces pombe, UniProt O94454); assay: Nedd8 conjugate cleavage (deneddylation of Pcu1/Cul1) by CSN in S. pombe cell extracts, immunoblot; type: biochemical; conditions: 30 min at 30° C.; for inhibition of Nedd8 conjugate cleavage activity of CSN (Nedd8 deconjugation from Cul1): 1 mM chelator
T1 construct: addition (+) of wild type lysate (which contained active CSN); endogenous in cells; host or cells: wild type S. pombe cell lysate
Experimental: On the basis of this analysis, it was hypothesized that CSN represents the founding member of a novel class of metalloproteases. To test this hypothesis, the effect of a divalent cation chelator on the Nedd8 conjugate cleavage activity associated with CSN was examined. Mutant csn5Δ S. pombe cell extract that contained neddylated Pcu1 was incubated either alone (−) or following addition (+) of wild type lysate (which contained active CSN) supplemented with either methanol vehicle (MeOH), 1 mM 1,10-phenanthroline (O-PT), or 1 mM, 10 mM, or 20 mM EDTA.
Reactions were incubated 30 min at 30° C. and terminated by addition of SDS-PAGE sample buffer, fractionated by SDS-PAGE, transferred to nitrocellulose, and immunoblotted with antibodies directed against S. pombe Cul1. Filter-bound antibodies were decorated with goat-anti-rabbit antibody conjugated to horse radish peroxidase and visualized with ECL reagents (Lyapina et al., supra, 2001).
The status of Nedd8 conjugation to Cul1 was determined by the mobility of Cul1 on the SDS-polyacrylamide gel. Nedd8-conjugated Cul1 migrated more slowly than unmodified Cul.

26S proteasome [2] = target: T2, 26S proteasome (Saccharomyces cerevisiae, UniProt P25043+P30656+P38624+P43588); assay: Deubiquitination and degradation of multiubiquitinated Sic1 by purified 26S proteasome, immunoblot; type: biochemical; conditions: 2.5 μM; in the presence of epoxomicin
T2 construct: made in house; host or cells: Saccharomyces cerevisiae

T1 sequence (O94454 whole entry): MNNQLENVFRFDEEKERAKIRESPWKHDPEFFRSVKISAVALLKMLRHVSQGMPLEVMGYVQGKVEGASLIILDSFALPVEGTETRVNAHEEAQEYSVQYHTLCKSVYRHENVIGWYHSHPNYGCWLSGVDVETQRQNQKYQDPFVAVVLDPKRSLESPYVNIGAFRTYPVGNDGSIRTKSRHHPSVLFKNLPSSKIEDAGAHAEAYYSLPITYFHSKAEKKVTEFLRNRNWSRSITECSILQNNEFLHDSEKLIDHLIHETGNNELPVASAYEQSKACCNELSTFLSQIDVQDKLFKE
T1 sequence (O94308 whole entry partner): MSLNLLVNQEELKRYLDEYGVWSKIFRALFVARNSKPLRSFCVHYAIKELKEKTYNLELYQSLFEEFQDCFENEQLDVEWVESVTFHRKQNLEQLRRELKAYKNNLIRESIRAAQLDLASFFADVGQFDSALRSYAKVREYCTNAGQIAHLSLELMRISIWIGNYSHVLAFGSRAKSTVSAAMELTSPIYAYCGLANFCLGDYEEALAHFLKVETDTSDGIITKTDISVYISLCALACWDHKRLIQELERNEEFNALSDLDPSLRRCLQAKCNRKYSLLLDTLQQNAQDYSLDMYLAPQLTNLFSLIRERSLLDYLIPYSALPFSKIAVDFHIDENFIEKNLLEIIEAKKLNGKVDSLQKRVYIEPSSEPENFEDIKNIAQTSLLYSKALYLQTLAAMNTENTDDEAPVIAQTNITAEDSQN
T1 sequence (Q9HFR0 whole entry partner): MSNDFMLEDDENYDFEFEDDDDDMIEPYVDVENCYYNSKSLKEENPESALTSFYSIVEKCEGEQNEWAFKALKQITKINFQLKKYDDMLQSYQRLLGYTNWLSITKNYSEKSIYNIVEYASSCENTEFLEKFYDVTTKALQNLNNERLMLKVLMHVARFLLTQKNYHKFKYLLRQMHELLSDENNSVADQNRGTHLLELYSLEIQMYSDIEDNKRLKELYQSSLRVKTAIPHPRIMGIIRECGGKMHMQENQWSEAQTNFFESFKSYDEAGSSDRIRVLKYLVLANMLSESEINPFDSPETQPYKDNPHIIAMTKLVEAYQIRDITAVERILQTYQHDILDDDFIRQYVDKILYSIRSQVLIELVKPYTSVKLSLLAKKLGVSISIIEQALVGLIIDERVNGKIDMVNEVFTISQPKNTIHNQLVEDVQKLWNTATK
T1 sequence (O13895 whole entry partner): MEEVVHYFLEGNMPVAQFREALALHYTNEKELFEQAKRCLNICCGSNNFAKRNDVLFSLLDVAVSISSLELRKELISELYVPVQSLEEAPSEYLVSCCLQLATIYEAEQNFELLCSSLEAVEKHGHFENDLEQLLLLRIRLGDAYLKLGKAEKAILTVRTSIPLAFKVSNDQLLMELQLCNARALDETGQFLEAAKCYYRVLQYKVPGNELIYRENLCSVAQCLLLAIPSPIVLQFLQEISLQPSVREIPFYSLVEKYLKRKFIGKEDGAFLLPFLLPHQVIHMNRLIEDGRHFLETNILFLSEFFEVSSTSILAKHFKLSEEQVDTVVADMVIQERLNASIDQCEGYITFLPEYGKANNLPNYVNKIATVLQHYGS
T1 sequence (Q8WZK4 whole entry partner): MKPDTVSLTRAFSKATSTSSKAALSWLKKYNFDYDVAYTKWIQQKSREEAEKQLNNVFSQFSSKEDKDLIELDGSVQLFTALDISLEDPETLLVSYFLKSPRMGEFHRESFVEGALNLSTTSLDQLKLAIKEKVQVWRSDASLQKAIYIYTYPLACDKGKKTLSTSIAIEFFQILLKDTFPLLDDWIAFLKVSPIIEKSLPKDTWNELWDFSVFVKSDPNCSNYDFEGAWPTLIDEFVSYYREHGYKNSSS
T1 sequence (Q9UUJ7 whole entry partner): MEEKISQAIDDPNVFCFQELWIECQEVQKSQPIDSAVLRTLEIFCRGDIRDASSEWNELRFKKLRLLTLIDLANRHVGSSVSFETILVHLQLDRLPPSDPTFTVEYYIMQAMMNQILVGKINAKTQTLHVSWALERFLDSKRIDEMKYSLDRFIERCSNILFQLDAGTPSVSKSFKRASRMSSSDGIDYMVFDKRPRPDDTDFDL

| inhibition of Nedd8 conjugate cleavage activity of CSN (Nedd8 deconjugation from Cul1) (CSN) | inhibition of Nedd8 deconjugation from Cul1 by CSN (CSN; 10 mM) | inhibition of Nedd8 deconjugation from Cul1 by CSN (CSN; 20 mM) | Compound | sensitivity of 26S proteasome-associated isopeptidase activity (26S proteasome [1]) | sensitivity of Sic1 deubiquitination by 26S proteasome to the inhibitor (26S proteasome [2]) |
| --- | --- | --- | --- | --- | --- |
| completely inhibited |  |  | c1cnc2c(c1)ccc1cccnc12 [1,10-phenanthroline] | sensitive |  |
| No inhibition | less than 50% | almost complete inhibition | O=C(O)CN(CCN(CC(=O)O)CC(=O)O)CC(=O)O [EDTA] |  |  |
|  |  |  | ubiquitin vinyl sulfone |  | not sensitive |
